System: Rattus norvegicus
Conditions: short-term, duration: 28 days, oral, gavage, M, Sprague-Dawley

O=C(O)C(F)(F)C(F)(F)C(F)(F)C(F)(F)C(F)(F)C(F)(F)C(F)(F)F [Perfluorooctanoic acid]
LOEL (Clinical chemistry_Alkaline phosphatase): 0.625 mg/kg-day
LOEL (Clinical chemistry_Aspartate aminotransferase): 2.5 mg/kg-day
LOEL (Clinical chemistry_Cholesterol): 0.625 mg/kg-day
LOEL (Clinical chemistry_Creatinine kinase): 2.5 mg/kg-day
LOEL (Clinical chemistry_Direct bilirubin): 10 mg/kg-day
LOEL (Clinical chemistry_Free thyroxine): 0.625 mg/kg-day
LOEL (Clinical chemistry_Globulin): 0.625 mg/kg-day
NOEL (Clinical chemistry_Sorbitol dehydrogenase): 10 mg/kg-day
NOEL (Clinical chemistry_Testosterone): 10 mg/kg-day
LOEL (Clinical chemistry_Thyroid stimulating hormone): 5 mg/kg-day
LOEL (Clinical chemistry_Total bile acids): 5 mg/kg-day
LOEL (Clinical chemistry_Total protein): 0.625 mg/kg-day
LOEL (Clinical chemistry_Total thyroxine): 0.625 mg/kg-day
LOEL (Clinical chemistry_Total triiodothyronine): 0.625 mg/kg-day
LOEL (Clinical chemistry_Triglycerides): 0.625 mg/kg-day
LOEL (Gene expression_Acox1): 0.625 mg/kg-day
LOEL (Gene expression_Acyl-CoA oxidase): 0.625 mg/kg-day
LOEL (Gene expression_Cyp2b1): 0.625 mg/kg-day
LOEL (Gene expression_Cyp2b2): 0.625 mg/kg-day
LOEL (Gene expression_Cyp4a1): 0.625 mg/kg-day
LOEL (Hematology_Erythrocytes): 1.25 mg/kg-day
LOEL (Hematology_Hematocrit): 1.25 mg/kg-day
LOEL (Hematology_Hemoglobin): 1.25 mg/kg-day
NOEL (Hematology_Mean corpuscular hemoglobin concentration): 10 mg/kg-day
LOEL (Hematology_Mean corpuscular volume): 10 mg/kg-day
NOEL (Hematology_Platelets): 10 mg/kg-day
LOEL (Hematology_Reticulocytes): 0.625 mg/kg-day
LOEL (Nonneoplastic effects_Bone marrow - Hypocellularity): 10 mg/kg-day
NOEL (Nonneoplastic effects_Epididymis - Duct, exfoliated germ cell): 10 mg/kg-day
NOEL (Nonneoplastic effects_Epididymis - Epithelium, apoptosis): 10 mg/kg-day
NOEL (Nonneoplastic effects_Epididymis - Hypospermia): 10 mg/kg-day
NOEL (Nonneoplastic effects_Forestomach - Epithelium, hyperplasia): 10 mg/kg-day
NOEL (Nonneoplastic effects_Forestomach - Inflammation, chronic active): 10 mg/kg-day
NOEL (Nonneoplastic effects_Kidney - Nephropathy, chronic progressive): 10 mg/kg-day
NOEL (Nonneoplastic effects_Liver - Hepatocyte, Necrosis): 10 mg/kg-day
LOEL (Nonneoplastic effects_Liver - Hepatocyte, cytoplasmic alteration): 0.625 mg/kg-day
LOEL (Nonneoplastic effects_Liver - Hepatocyte, hypertrophy): 1.25 mg/kg-day
NOEL (Nonneoplastic effects_Liver - Hepatocyte, vacuolization cytoplasmic): 10 mg/kg-day
NOEL (Nonneoplastic effects_Lymph nodes - Mandibular, atrophy): 10 mg/kg-day
NOEL (Nonneoplastic effects_Lymph nodes - Mesenteric, atrophy): 10 mg/kg-day
NOEL (Nonneoplastic effects_Nose - Olfactory epithelium, degeneration): 10 mg/kg-day
NOEL (Nonneoplastic effects_Nose - Olfactory epithelium, hyperplasia): 10 mg/kg-day
NOEL (Nonneoplastic effects_Nose - Olfactory epithelium, inflammation, suppurative): 10 mg/kg-day
LOEL (Nonneoplastic effects_Nose - Respiratory epithelium, hyperplasia): 0.625 mg/kg-day
LOEL (Nonneoplastic effects_Nose - Respiratory epithelium, inflammation, chronic active): 0.625 mg/kg-day
NOEL (Nonneoplastic effects_Spleen - Atrophy): 10 mg/kg-day
NOEL (Nonneoplastic effects_Spleen - Extramedullary hematopoiesis, increased): 10 mg/kg-day
NOEL (Nonneoplastic effects_Testes - Germinal epithelium, degeneration): 10 mg/kg-day
NOEL (Nonneoplastic effects_Testes - Interstitial cell, atrophy): 10 mg/kg-day
NOEL (Nonneoplastic effects_Testes - Seminiferous tubule, spermatid retention): 10 mg/kg-day
NOEL (Nonneoplastic effects_Thymus - Atrophy): 10 mg/kg-day
NOEL (Nonneoplastic effects_Thymus - Lymphocyte, apoptosis): 10 mg/kg-day
LOEL (Nonneoplastic effects_Thyroid gland - Follicular cell hypertrophy): 10 mg/kg-day
LOEL (Organ weights_Liver - Absolute): 0.625 mg/kg-day
LOEL (Organ weights_Liver - Relative): 0.625 mg/kg-day
NOEL (Organ weights_R. adrenal gland - Absolute): 10 mg/kg-day
NOEL (Organ weights_R. adrenal gland - Relative): 10 mg/kg-day
LOEL (Organ weights_R. kidney - Absolute): 1.25 mg/kg-day
LOEL (Organ weights_R. kidney - Relative): 0.625 mg/kg-day
NOEL (Organ weights_R. testis - Absolute): 10 mg/kg-day
LOEL (Organ weights_Spleen - Absolute): 2.5 mg/kg-day
NOEL (Organ weights_Spleen - Relative): 10 mg/kg-day
LOEL (Organ weights_Thymus - Absolute): 10 mg/kg-day
NOEL (Organ weights_Thymus - Relative): 10 mg/kg-day
LOEL (Organ weights_Thyroid gland - Absolute): 2.5 mg/kg-day
LOEL (Organ weights_Thyroid gland - Relative): 1.25 mg/kg-day
LOEL (Reproductive toxicity_Altered sperm parameters): 10 mg/kg-day
NOEL (Survival rates): 10 mg/kg-day
LOEL (body weight): 5 mg/kg-day

From EPA's ToxValDB 9.5
